Measured values reported in article PMC9822352, “Design, Synthesis and Evaluation of New Multifunctional Benzothiazoles as Photoprotective, Antioxidant and Antiproliferative Agents” (Molecules, 2022).

Experiments:
Colo-38 cell line = assay: Pro-apoptotic activity (Annexin V method), Colo-38; format: cell-based, human; details: for Dead (%) / Early Apoptosis (%) / Late Apoptosis (%): 24 h; for total apoptosis: Colo-38, 24 h, concentrations approaching IC50
Experimental: The Annexin V assay was conducted at two concentrations approaching IC50 values toward the selected cell lines reported in Table 3. The complete set of data is reported in Table 4, while representative data from the analysis of the corresponding Muse Analyzer plots are shown in Figure 2.
Apoptosis assays were performed with a Muse® Cell Analyzer instrument (Merck Millipore, Burlington, MA, USA) and the kit on Colo-38 and HaCat cell lines according to the manufacturer’s protocol. Cells were treated and exposed to the compounds for 24 h. This procedure is based on the detection of PS (PhosphatidylSerine) exposed on the external membrane of apoptotic cells by Annexin V. Four populations of cells can be distinguished using this assay: live, early apoptotic, late apoptotic and dead cells. The MUSE cell analyzer can discriminate “early” from “late” apoptosis since “early apoptotic cells” are Annexin V-positive and 7-AAD-negative, while “late apoptotic cells” are positive to both Annexin V and 7-AAD (7-aminoactinomycin D). The DNA intercalating molecule 7AAD (7-aminoactinomycin D) is used as an indicator of cell membrane integrity, since it binds DNA only in cells undergoing late apoptosis/death stage, when the membrane integrity is lost. Muse Annexin V and Dead Cell reagent were used to dilute the cells (1:1). After 20 min of incubation between cell samples and the kit at room temperature in the dark, the samples were analyzed using 0.01% Triton X-100 as positive control. The data were acquired and recorded using the Annexin V and Dead Cell software module (Millipore, Billerica, MA, USA).

[1] = Photostability study of 3% formulation (post-irradiation filtering parameters); details: 3% in formulation; for % SPFeff (residual percentage of SPF in vitro): SPF after/before irradiation × 100; for % UVA-PFeff (residual percentage of UVA-PF): UVA-PF after/before irradiation × 100; for SPF / UVA/UVB / UVAPF / λc: post irradiation
Description: To outline the efficacy and safety profile of a sunscreen formulation, it is essential to provide data relating to photostability. It is possible to provide photodegradation data by recording, pre- and post-irradiation, the transmittance of PMMA plates with finger-coat formulations subjected to a dose of UVA capable of causing erythema, according to the criteria of Garoli et al.. By means of Equations (2) and (3) it was possible to evaluate the residual percentage of SPF in vitro and of UVA-PF for all the prepared formulations. Of greatest interest are the values obtained for the derivatives BZTcin2 and BZTcin4.
To determine the photostability, the previously reported method was adopted, which consists in preparing each plate as mentioned above and subjecting it to solar irradiation quantified as the minimum dose of UVA equivalent to an effective radiant exposure of erythema. The protocol stipulates that, before and after exposure to sunlight, the transmission of the sun protection layer in the range of 290–400 nm is recorded.
Using Equations (2) and (3) below, the residual percentage of SPF in vitro (% SPFeff.) and UVA-PF (% UVA-PFeff.) have been obtained, which, if greater than or equal to 80, can classify a filter as photostable. %SPFeff. = in vitro SPFafter/in vitro SPFbefore × 100(2) %UVA − PFeff. = UVA − PFafter/UVA − PFbefore × 100(3)

HaCat keratinocytes = assay: Cell growth inhibition assay, HaCat; format: cell-based, human; details: Homo sapiens, HaCaT; 24 h incubation, cell count
Experimental: (§1) All synthesized compounds were tested in order to evaluate their in vitro antiproliferative activity. The human melanoma Colo-38 cell line was selected as a tumor skin model, while the immortalized human HaCaT keratinocytes were chosen as a control for the evaluation of the cytotoxicity towards non-cancerous cells and of the selectivity towards tumor cell lines. […] The selectivity index (SI) was also calculated and is the ratio between the IC50 of a given compound towards the non-cancerous cell line and the IC50 of the same compound towards the tumor cell line.
(§2) Cell growth inhibition assays were carried out using human melanoma Colo-38 cells and skin HaCat keratinocytes cells. Human melanoma Colo-38 cells were kindly provided by Dr. Patrizio Giacomini (Laboratory of Immunology, Regina Elena Institute, Rome, Italy). HaCat cells were kindly provided by Istituto Zooprofilattico Sperimentale della Lombardia e dell’Emilia Romagna, Brescia, Italy. Cell lines were seeded using concentrations of 40,000 cells/mL and 25,000 cells/mL, respectively. Colo-38 cells were maintained in RPMI 1640, supplemented with 10% fetal bovine serum (FBS), penicillin (100 Units mL^−1), and streptomycin (100 µg mL^−1). HaCat cells were maintained in DMEM, supplemented with 10% fetal bovine serum (FBS), penicillin (100 Units mL^−1), streptomycin (100 µg mL^−1) and glutamine (2 mM); the incubation was performed at 37 °C in a 5% CO2 atmosphere. Tested compounds were dissolved in MeOH/DMSO (1:1) to obtain 50 mM stock solutions and diluted before cell treatment in MeOH 100%. The tested compounds were added at serial dilutions to the cell cultures (from 0.1 to 100 µM) and incubated for 24 h further. Cells were then harvested, suspended in physiological solution, and counted with a Z2 Coulter Counter (Coulter Electronics, Hialeah, FL, USA). The cell number/mL and the IC50 values were determined when untreated cells were in the log phase of cell growth. Cells treated with vehicles and untreated cells were placed in each plate.

[2] = DPPH radical scavenging test; details: mean ± SEM; for DPPH (% Inhibition): compound at 1 mg/mL, 30 min, 517 nm
Experimental: The DPPH assay is widely used, and the simplest and fastest in vitro method for evaluating the antioxidant power of extracts or isolated compounds; it is based on the depletion of the 2,2-diphenyl-1-picrylhydrazyl radical (DPPH˙) by an antioxidant molecule with scavenger activity. This is an extremely sensitive test that can detect the activity of active ingredients present in very low concentrations.
The procedure used was adapted from Wang et al.. Briefly, 0.750 mL of a methanolic solution of each tested compound was treated with 1.5 mL of DPPH solution (0.004%) in MeOH. Samples were stored in the dark at room temperature for 30 min, and the absorbance value was read with a spectrophotometer at 517 nm, which is the maximum peak of absorbance relative to the DPPH radical absorption spectra. The values obtained were fitted into Equation (1) and converted to inhibition percentage (%) of the radical:DPPH inhibition percentage (%) = 100 × [1 − A1/A0](1) where A1 and A0 were, respectively, the absorbance recorded with and without the sample, which are directly proportional to DPPH residual concentration in the sample and DPPH concentration in the control (0.750 of MeOH and 1.5 mL of DPPH solution). […] A linear regression was performed to calculate the sample concentration able to eliminate 50% of DPPH free radicals.

melanoma Colo-38 cells = assay: Cell growth inhibition assay, Colo-38; format: cell-based, human; details: for IC50: Homo sapiens, 24 h incubation, cell count; for SI Colo-38 (selectivity index): IC50 HaCat / IC50 Colo-38
Experimental: as §1, §2

Row | Structure (SMILES) | Dead (%) (Colo-38 cell line; Colo-38, 5 µM) | Early Apoptosis (%) (Colo-38 cell line; Colo-38, 5 µM) | Late Apoptosis (%) (Colo-38 cell line; Colo-38, 5 µM) | Dead (%) (Colo-38 cell line; Colo-38, 50 µM) | Early Apoptosis (%) (Colo-38 cell line; Colo-38, 50 µM) | total apoptosis (Colo-38 cell line) | % SPFeff (residual percentage of SPF in vitro) [1] | % UVA-PFeff (residual percentage of UVA-PF) [1] | SPF [1] | UVA/UVB [1] | UVAPF [1] | λc [1] | IC50 (HaCat keratinocytes) | DPPH (% Inhibition) [2] | IC50 (melanoma Colo-38 cells) | Dead (%) (Colo-38 cell line; Colo-38, 10 µM) | Early Apoptosis (%) (Colo-38 cell line; Colo-38, 10 µM) | Late Apoptosis (%) (Colo-38 cell line; Colo-38, 10 µM) | SI Colo-38 (selectivity index) (melanoma Colo-38 cells) | further results
1 | O=C(/C=C/c1ccc(O)cc1)Nc1nc2ccccc2s1 [BZTcin2, (E)-N-(benzo[d]thiazol-2-yl)-3-(4-hydroxyphenyl)acrylamide] | 2.05% | 1.70% | 16.90% | 4.45% | 1.85% | over 30% | 96.00% | 85.50% | 11.77 | 1.49 | 10.08 | 377 nm | > 100 µM | 12.37 ± 0.00% | 35.2 ± 5.52 µM | – | – | – | – | –
2 | O=C(/C=C/c1ccc(O)c(O)c1)Nc1nc2ccccc2s1 [BZTcin4, (E)-N-(benzo[d]thiazol-2-yl)-3-(3,4-dihydroxyphenyl)acrylamide] | 1.00% | 3.85% | 8.50% | – | – | does not induce apoptosis at any of the concentrations tested | 86.91% | 93.25% | 8.43 | 1.39 | 10.63 | 380 nm | 38.1 ± 5.13 µM | >90.00% | 8.31 ± 0.76 µM | 1.35% | 3.20% | 8.00% | 4.59 | DPPH IC50 [2]: 4.86 ± 0.38 µg/mL
3 | COc1ccc(/C=C/C(=O)Nc2nc3ccccc3s2)cc1O [BZTcin5, (E)-N-(benzo[d]thiazol-2-yl)-3-(3-hydroxy-4-methoxyphenyl)acrylamide] | – | – | – | 3.50% | 1.40% | > 20% | – | – | 3.51 | 1.11 | 3.32 | 377 nm | 83.3 ± 5.79 µM | 40.15 ± 0.18% | 10 ± 6.12 µM | 3.75% | 1.80% | 21.40% | 8.33 | Late Apoptosis (%) (Colo-38 cell line; Colo-38, 50 µM): 16.25%
4 | O=C(N/N=C/c1ccc(O)cc1)c1nc2ccccc2s1 [BZTidr2, (E)-N′-(4-hydroxybenzylidene)benzo[d]thiazole-2-carbohydrazide] | – | – | – | – | – | – | – | – | 1.85 | 1.09 | 1.96 | 386 nm | > 100 µM | 54.80 ± 1.63% | 92.6 ± 1.68 µM | – | – | – | – | –
